These results are taken from publication PMC5824344 (ACS Chemical Biology, 2017).

The target in series [1] is T1, Rat liver ER α-glucosidase I (Rattus norvegicus, UniProt O88941).
T1 construct: Rat liver ER, I; from tissue; host or cells: liver of male Wistar rats
T1 sequence (O88941 1-834): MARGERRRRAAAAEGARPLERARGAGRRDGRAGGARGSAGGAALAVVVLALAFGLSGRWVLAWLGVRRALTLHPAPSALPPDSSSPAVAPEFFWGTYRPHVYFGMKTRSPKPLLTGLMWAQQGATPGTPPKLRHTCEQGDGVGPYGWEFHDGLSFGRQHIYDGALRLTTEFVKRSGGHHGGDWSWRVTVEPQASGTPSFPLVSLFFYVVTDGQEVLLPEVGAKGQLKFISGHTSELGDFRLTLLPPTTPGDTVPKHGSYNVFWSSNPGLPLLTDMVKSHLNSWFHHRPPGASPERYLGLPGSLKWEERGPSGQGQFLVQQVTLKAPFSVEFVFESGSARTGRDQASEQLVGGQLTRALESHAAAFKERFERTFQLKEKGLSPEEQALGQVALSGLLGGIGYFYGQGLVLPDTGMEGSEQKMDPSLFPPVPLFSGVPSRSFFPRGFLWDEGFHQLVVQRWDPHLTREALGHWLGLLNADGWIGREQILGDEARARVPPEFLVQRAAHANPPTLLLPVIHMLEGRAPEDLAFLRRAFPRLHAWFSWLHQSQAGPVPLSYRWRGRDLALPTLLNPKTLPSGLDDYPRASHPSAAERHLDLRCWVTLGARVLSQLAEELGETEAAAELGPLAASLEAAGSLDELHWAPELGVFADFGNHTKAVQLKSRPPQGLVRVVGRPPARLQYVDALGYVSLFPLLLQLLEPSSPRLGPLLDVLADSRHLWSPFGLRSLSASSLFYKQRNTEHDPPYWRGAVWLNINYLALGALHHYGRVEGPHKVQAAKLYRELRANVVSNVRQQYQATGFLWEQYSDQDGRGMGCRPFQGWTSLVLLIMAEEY
The series can be described thus: Inhibition of isolated rat liver ER α-glucosidase I (anthranilic acid-labelled Glc3Man7GlcNAc2 substrate, HPLC). The class given is biochemical. As to conditions: for IC50: isolated enzyme in vitro, mean of three measurements. As to the method: 4 Enzyme Inhibition Assays
All rat enzymes were isolated from 18-week-old, male Wistar rats, while human lysosomal α-glucosidase was obtained in commercially available form from Sanoﬁ Genzyme. Inhibition of isolated glucosidases was evaluated as described previously. 3 Brieﬂy, maltase, isomaltase, sucrase, and cellobiase were used as partially puriﬁed tissue extracts. Inhibition assays for each enzyme were performed with the respective natural substrate, and release of d-glucose measured by Glucose B-test (Wako Diagnostics). Assays of rat ER α-glucosidase II and human lysosomal α-glucosidase inhibition were conducted with α-p-nitrophenylglucoside as substrate; 400 mm Na2CO3 was added to quench these reactions, and the extent of hydrolysis was evaluated as absorbance at 400 nm by spectrophotometer.
ER α-glucosidase I inhibition assays were performed using anthranilic acid-labelled Glc3Man7GlcNAc2 as substrate. After terminating the reaction with acetonitrile, protein was removed by cen-trifugation through a 10 kDa molecular weight cut oﬀ ﬁlter. The amount of hydrolysis was then quantiﬁed by normal phase high performance liquid chromatography analysis of unreacted substrate and product (Glc2Man7GlcNAc2).4
ER α-glucosidase II inhibition assays using native-like substrates were performed using an-thranilic acid-labelled Glc2Man7GlcNAc2 as substrate. After terminating the reaction with acetonitrile, protein was removed by centrifugation through a 10 kDa molecular weight cut oﬀ ﬁlter. The amount of hydrolysis was then quantiﬁed by normal phase high performance liq-uid chromatography analysis of unreacted substrate and both products (Glc1Man7GlcNAc2

Series [2] is described as follows: Pharmacokinetics and biodistribution study in mice (IV and PO). Type of series: in vivo, BALB/c mice. As to the method:
Supplemental Figure 4: Mouse biodistribution of orally-administered 4. Mice were treated with a single dose of 4 by oral gavage (PO, 10 mg/kg). The mice were sacriﬁced at 30 min, 4 h, and 24 h after 4 administration, and the indicated tissues homogenized and analyzed for 4 by HPLC. While serum levels are much lower than […]
and kidney at 0.5 hours. At 4 and 24 h, as in the IV cohort, 4 remains at a higher concentration in the liver than in other tissues. Each data point represents the mean of 3 animals with error bars representing standard deviation (GraphPad Prism).
(also on this page, place not known: Serum Brain Liver Kidney Heart Spleen Lung 0 500 1000 1500 2000 Tissue h h (ng per g tissue) h 0.5 24 4)
(1 picture or pasted object on this page, not shown here)
The adherent monolayers were washed once with Hank’s buﬀered salt solution (Gibco), then inoculated with 100 µL of analyte and 100 µL of the supplemented MEM used to prepare the dilutions. The plates were rocked at 20 ◦C for 90 min, after which the inoculum was removed and nutrient-supplemented primary overlay (1 mL) was added to each well. The overlay was allowed to solidify at 20 ◦C, before returning the cells to the incubator. After 5 d, nutrient-supplemented, neutral red-containing secondary overlay (1 mL) was added to each well and allowed to solidify at 20 ◦C, then the cells were returned to the incubator.
After 1 d, plaques were observed and counted from the underside of the plate by eye.
5.10 Pharmacokinetics and Biodistribution Study
The study was carried out by Sai Life Science, Ltd. All procedures were in accordance with the guidelines provided by the Committee for the Purpose of Control and Supervisions of Experiments on Animals as published in The Gazette of India, December 15, 1998. Prior approval of the Institutional Animal Ethics Committee was obtained before initiation of the […]
18 healthy male BALB/c mice (8 – 12 weeks old) weighing between 20 and 35 g were procured from ACTREC, Mumbai, India. Illumination was controlled to give a cycle of 12 h light and 12 h dark. Temperature and humidity were recorded by an auto-controlled data logging system and maintained at 22± 3◦C and 55± 15% humidity, respectively. Animals were provided laboratory rodent diet (Vetcare India Pvt. Ltd.) and fresh reverse-osmosis, UV-treated water ad libitum. The mice were randomly divided into two groups. One group was treated with 4 intravenously (IV) at a dose of 2 mg/kg, while the other group was treated with an oral (per os, PO) dose of 10 mg/kg. The dosing volume was 5 mL/kg for IV treatment and 10 mL/kg for PO treatment. Blood samples were collected from three mice from each group under light isoﬂurane anaesthesia before dosing and at 0.25, 0.5, 1, 2, 4, 8 and 24 h after dosing. An additional blood sample was taken for the IV group at 0.08 h after dosing. After collection, potassium tetraethylenediamine was added to the sample as an anticoagulant. Plasma was immediately harvested by centrifugation and then stored at –70 ◦C until analysis. At 0.5, 4, and 24 h after dosing, 3 mice from each group

The mark [3] stands for this setting: BALB/c mice, oral (PO, 10 mg/kg).
Where [4] appears, read: mice, single dose by oral gavage (PO, 10 mg/kg).

For orientation: IC50 means the point on the concentration scale where inhibition reaches its midpoint. Lower therefore signals greater potency in that assay. In turn, `CCCCN1CC(O)C(O)C(O)C1CO` [Compound 2, N-butyl-D-1-deoxynojirimycin, reference compound] had an IC50 in series [1] of 680 nM.
As a reminder, the half-life is how long it takes for the measured level to halve. Consider `Cc1c(C)c2c(c(C)c1OCCCCCN1CC(O)C(O)C(O)C1CO)CCC(C)(CCCC(C)CCCC(C)CCCC(C)C)O2` (centres unmarked) [Compound 4, 5′-tocopheroxypentyl-DNJ], for which the inhibition at 50 µM in series [1] (50 μM, read-out: inhibition of GluI at the maximum tested concentration) is less than 50%. The IC50 in series [1] was more than 50000 nM. Moreover, in series [2] (BALB/c mice), the “change of amount present in the liver between the 4 and 24 h time points” value is reported as “did not decrease”; the oral bioavailability result is on record as “poor oral bioavailability”. In addition, in series [2] (setting [3]), the “maximum blood plasma concentration” value was 46 nM and the “time of maximum blood plasma concentration” value turned out to be 8 h. Also, the “tissue in which compound was detected in the highest amounts” value in series [2] (BALB/c mice, oral and intravenous administration) was “highest amounts in the liver”. For the same molecule, the half-life in series [2] (male, mouse, plasma, BALB/c mice (Figure 3B), read-out: plasma terminal half-life (converted)) was 8.79 h. In addition, in series [2] (setting [4]), the “concentration in the liver relative to other tissues at 4 and 24 h” value is on record as “higher”; the “tissue levels at 0.5 hours” value is on record as “high levels are achieved in the liver”.
